One assay deals with bacteria. The experiment in a line: Minimum Inhibitory Concentration (MIC) assay, bacteria. It is filed as cell-based. Conditions: antibacterial; complete inhibition of visible growth. The method, then:
(§1) These assays are adapted from NCCLS protocols M7-A4 and M27-A (NCCLS vol 17:9 and vol 17:2) as modified by Sandven, S. Clin. Micro. (1999) 37:12, p. 3856–3859. MIC values for Aspergillus fumigatus were determined using NCCLS protocol M38-P.
(§2) All compounds were dissolved in 100% DMSO to a stock concentration of 10 mM and use fresh or stored at −80° C. Stock compounds were kept frozen until needed and used freshly with no more then one freeze-thaw cycle. When used for test purposes, compounds were diluted in the appropriate media depending on the organism being tested.
(§3) For yeast and aspergillus species, seven 1:2 serial dilutions of compound in appropriate media buffered with MOPS at pH 7.0 were prepared such that the final starting test compound concentrations were 50.0 uM for yeast and 50 uM aspergillus species. For bacteria, dilutions were made in growth media used for the particular bacteria being tested.
Inoculums are made in the same manner as yeast except all dilutions are made in normal saline, with a final dilution of 1:200 and an inoculum of 10 μL.

Assay [1] concerns yeast and aspergillus species. The assay can be described thus: Minimum Inhibitory Concentration (MIC) assay, yeast and filamentous fungi. Conditions: antifungal; complete inhibition of visible growth, 48 h at 35 C. It is filed as cell-based, Candida albicans; Aspergillus fumigatus. The method, then: as §1, §2, §3
Five well-separated colonies from a 24 hr Sabouraud Dextrose plate incubated at 35 C were picked and resuspended into 5.0 ml of normal saline. The O.D.530 was read and the culture was adjusted to 0.5 McFarland units with normal saline. A 1:2000 dilution was made with RPMI 1640 media buffered with MOPS at pH 7.0 and 100 μL of this inoculum preparation was added to an equal volume of test compound-containing media. 25 μL of the redox indicator Alamar Blue (Biosource International) was added to each well and the plates were incubated for 48 h at 35 C. Wells having yeast growth changed color from blue to pink.
Inoculums are made by incubating Aspergillus fumigatus for 7 days at 35 C on potato dextrose agar slants. Slants are then covered with 1.0 ml of 0.85% saline, one drop of Tween 20 is added and colonies are teased with a sterile transfer loop to create a suspension which is allowed to sit for 5 min so heavier particles can drop out. The upper suspension is separated and adjusted to an optical density of 0.09 to 0.11. The resulting suspension is diluted 1:50 which yields 2× the final inoculum needed. Micro dilution trays are prepared as with yeast and incubated for 48 h at 35 C. For our purposes the MIC is defined as the lowest compound concentration at which no visible growth is observed after 48 h.

For the compound `N=C(N)CNC(=O)c1cc(NC(=O)c2ccc(C(=O)Nc3cc(C(=O)NCC(=N)N)n(CC4CC4)c3)cc2)cn1CC1CC1` [Compound 284, N,N′-Bis-[5-(carbamimidoylmethylcarbamoyl)-1-cyclopropylmethyl-1H-pyrrol-3-yl]-terephthalamide], the MIC (against bacteria; in assay [1]) was less than 45.5 µM throughout.
Take `CCCCn1cc(NC(=O)c2ccc(C(=O)Nc3cc(C(=O)NCC(=N)N)n(CCCC)c3)cc2)cc1C(=O)NCC(=N)N` [Compound 287, N,N′-Bis-[1-butyl-5-(carbamimidoylmethyl-carbamoyl)-1H-pyrrol-3-yl]terephthalamide]: the MIC (against bacteria; in assay [1]) was less than 45.5 µM each time.
With `CCCCn1cc(NC(=O)c2ccc(C(=O)Nc3cc(C(=O)NCC(=N)NC)n(CCCC)c3)cc2)cc1C(=O)NCC(=N)NC` [Compound 289, N,N′-Bis-[1-butyl-5-(methylcarbamimidoylmethyl-carbamoyl)-1H-pyrrol-3-yl]terephthalamide], the MIC (with bacteria; in assay [1]) was less than 45.5 µM throughout.
In the case of `CCCCn1cc(NC(=O)c2ccc(C(=O)Nc3cc(C(=O)NCC(=N)NCC)n(CCCC)c3)cc2)cc1C(=O)NCC(=N)NCC` [Compound 290, N,N′-Bis-[1-butyl-5-(ethylcarbamimidoylmethyl-carbamoyl)-1H-pyrrol-3-yl]terephthalamide], the MIC (in the assay on bacteria; in assay [1]) was less than 45.5 µM each time.
On to `N=C(N)CNC(=O)c1cc(NC(=O)c2ccc(C(=O)Nc3cc(C(=O)NCC(=N)N)n(CC4CC4)c3)nc2)cn1CC1CC1` [Compound 292, Pyridine-2,5-dicarboxylic acid bis{[5-(carbamimidoylmethyl-carbamoyl)-1-cyclopropylmethyl-1H-pyrrol-3-yl]-amide}], for which the minimum inhibitory concentration (MIC) (in the assay on bacteria; in assay [1]) was less than 45.5 µM in each case.
As for `N=C(N)CNC(=O)c1cc(NC(=O)c2cnc(C(=O)Nc3cc(C(=O)NCC(=N)N)n(CC4CC4)c3)cn2)cn1CC1CC1` [Compound 293, Pyrazine-2,5-dicarboxylic acid bis-{[5-(carbamimidoylmethyl-carbamoyl)-1-cyclopropylmethyl-1H-pyrrol-3-yl]-amide}], the MIC (in the assay with bacteria; in assay [1]) was less than 45.5 µM in each case.
With `N=C(N)CNC(=O)c1cc(NC(=O)C2=CC=C(C(=O)Nc3cc(C(=O)NCC(=N)N)n(CC4CC4)c3)CC2)cn1CC1CC1` [Compound 294, Cyclohexa-1,3-diene-1,4-dicarboxylic acid bis-{[5-(carbamimidoylmethyl-carbamoyl)-1-cyclopropylmethyl-1H-pyrrol-3-yl]-amide}], the MIC (in the assay with bacteria; in assay [1]) was less than 45.5 µM each time.
On to `N=C(N)CNC(=O)c1cc(NC(=O)c2cc(C(=O)Nc3cc(C(=O)NCC(=N)N)n(CC4CC4)c3)[nH]n2)cn1CC1CC1` [Compound 295, 1H-Pyrazole-3,5-dicarboxylic acid bis-{[5-(carbamimidoylmethyl-carbamoyl)-1-cyclopropylmethyl-1H-pyrrol-3-yl]-amide}], for which the MIC (in the assay with bacteria; in assay [1]) was less than 45.5 µM each time.

For orientation: MIC means the least concentration at which growth counts as inhibited. Lower therefore signals a more susceptible organism.
